Assay results: PubChem BioAssay (NCI)
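96-well plates; 48 h exposure; 5 concentrations. Endpoints by linear interpolation between flanking doses. Not reached: highest tested concentration assigned. The concentration for 50% growth inhibition is given as GI50. At the TGI there is no net growth.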

Experiments:
Test in all cases: NCI tumour cell line growth inhibition, 48 h
[1] = test system: PC-3 prostate
[2] = test system: HS 578T breast
[3] = test system: A498 renal
[4] = test system: MDA-MB-468 breast
[5] = test system: SF-539 CNS
[6] = test system: SK-MEL-5 melanoma
[7] = test system: OVCAR-8 ovarian
[8] = test system: MALME-3M melanoma
[9] = test system: MDA-MB-435
[10] = test system: NCI/ADR-RES ovarian
[11] = test system: HCT-116 colon
[12] = test system: ACHN renal
[13] = test system: NCI-H226 lung
[14] = test system: EKVX NSCLC
[15] = test system: LOX IMVI melanoma
[16] = test system: SF-268 CNS
[17] = test system: HT29 colon
[18] = test system: SF-295 CNS
[19] = test system: SNB-19 CNS
[20] = test system: MOLT-4 leukemia
[21] = test system: MDA-MB-231 breast
[22] = test system: M14 melanoma
[23] = test system: U251 CNS
[24] = test system: SK-OV-3 ovarian
[25] = test system: COLO 205 colon
[26] = test system: SR leukemia
[27] = test system: NCI-H522 lung
[28] = test system: HCT-15 colon
[29] = test system: RXF 393 renal
[30] = test system: OVCAR-3 ovarian

O=C(N/C(=C1/OCCN1Cc1ccccc1)[P+](c1ccccc1)(c1ccccc1)c1ccccc1)c1ccccc1
TGI [1]: 16.4 µM | GI50 [2]: 3.07 µM | TGI [2]: 20.7 µM | GI50 [3]: 16.4 µM | TGI [3]: 31.4 µM | GI50 [4]: 1.45 µM | TGI [4]: 5.68 µM | GI50 [5]: 6.59 µM | TGI [5]: 19.6 µM | GI50 [6]: 1.58 µM | TGI [6]: 2.93 µM | GI50 [7]: 4.25 µM | TGI [7]: 16.9 µM | GI50 [8]: 1.66 µM | TGI [8]: 3.7 µM | GI50 [9]: 3.2 µM | TGI [9]: 12 µM | GI50 [10]: > 100 µM | TGI [10]: > 100 µM | GI50 [11]: 3.09 µM | TGI [11]: 12.9 µM | GI50 [12]: 13.4 µM | TGI [12]: 26.5 µM | GI50 [13]: 3.91 µM | TGI [13]: 15.6 µM | GI50 [14]: 3.63 µM | TGI [14]: 12.2 µM | GI50 [15]: 4.12 µM | TGI [15]: 15.1 µM | GI50 [16]: 3.41 µM | TGI [16]: 15.7 µM | GI50 [17]: 6.13 µM | TGI [17]: 29.8 µM | GI50 [18]: 9.92 µM | TGI [18]: 21.9 µM | GI50 [19]: 2.79 µM | TGI [19]: 10.7 µM | GI50 [20]: 3.36 µM | TGI [20]: 68.3 µM | GI50 [21]: 2.1 µM | TGI [21]: 5.81 µM | GI50 [22]: 3.67 µM | TGI [22]: 15.7 µM | GI50 [23]: 3.24 µM | TGI [23]: 13 µM | GI50 [24]: 10.3 µM | TGI [24]: 27.2 µM | GI50 [25]: 2.66 µM | TGI [25]: 7.46 µM | GI50 [26]: 2.7 µM | TGI [26]: 11.6 µM | GI50 [27]: 1.83 µM | TGI [27]: 6.36 µM | GI50 [28]: 15.6 µM | TGI [28]: 30.2 µM | GI50 [29]: 2.46 µM | TGI [29]: 10.3 µM | GI50 [30]: 2.78 µM | TGI [30]: 10.8 µM
